According to patent US6605704B1, “Plant-origin regulator protein and nucleic acid encoding the same” (Japan Tobacco Inc., priority 1999, dated 2003):
Where two headings read alike, the source gives them in different places.

Key:
mRNA of ZmCip1 [1] = assay: Northern analysis after t-zeatin, benzyladenine or abscisic acid treatment of cut leaves; assay type: cell-based, maize (Zea mays L.cv. Golden Cross Bantam T51); conditions: 100 or 180 minutes, nitrogen-deficient leaves
Protocol: (§1) The cut leaves of the maize cultivated under the low-nitrogen condition as mentioned above was treated with 5 μM t-zeatin or with water for 0 minute, 30 minutes, 45 minutes, 60 minutes or 90 minutes, and the ⅓ portions from the distal ends of the leaves was collected. After freezing the collected leaves with liquid nitrogen, RNAs were extracted by the guanidine thiocyanate/cesium chloride method. Ten micrograms of the obtained RNAs were fractionated by formaldehyde gel (1%) electrophoresis and the resultant was transferred to a nylon membrane. Hybridization was performed using ZmCip1 cDNA or maize ubiquitin gene as a probe.
(10) The cut leaves of the maize cultivated under the low-nitrogen condition as mentioned above were treated with 5 μM t-zeatin, 5 μM benzyladenine, 10 μM±abscisic acid or with water for 100 minutes or 180 minutes, and Northern analysis was performed as in (4).

mRNA of ZmCip1 [2] = conditions: 5 μM, 100 minutes, nitrogen-deficient leaves
Protocol: (§2) The cut leaves of the maize cultivated under the low-nitrogen condition as mentioned above were treated with 16 mM NaNO3 solution or with 0.08 mM NaNO3 solution for 0 hour, 2 hours, 5 hours, […] or 24 hours and Northern analysis was carried out in the same manner as in (4) except that the weight of the RNAs applied to each gel was 20 μg, respectively, and that a non-coding region of ZmCip1 was used as a probe.
The cut leaves of the maize cultivated under the low-nitrogen condition as mentioned above were treated with 5 μM t-zeatin, 5 μM zeatin-O-glucoside or with water for 100 minutes, and Northern analysis was performed in the same manner as in (5), except that the amount of the RNAs applied to each gel was 15 μg.

mRNA of ZmCip1 [3] = system: mRNA of ZmCip1
Protocol: as §1, §2

mRNA of ZmCip1 [4] = conditions: 16 mM NaNO3, 5 hours after treatment
Protocol: as §2
The maize cultivated under the low-nitrogen condition as mentioned above was treated with 16 mM NaNO3 solution or with 0.08 mM NaNO3 solution for 5 hours, and its leaf blades, leaf sheaths and roots were separately collected, followed by Northern analysis in the same manner as in (5) except that the amount of the RNAs from leaf sheaths or roots applied to each gel was 30 μg.

mRNA of ZmCip1 [5] = conditions: 10^−11 to 10^−7 M tested, 100 or 180 minutes, cut leaves
Protocol: as §2

mRNA of ZmCip1 [6] = conditions: 5 μM, nitrogen-deficient maize green leaves
Protocol: as §1

mRNA of ZmCip 1 = assay: Northern analysis of induction of expression of CIP1 by cytokinin treatment and cycloheximide treatment; assay type: cell-based, maize (Zea mays L.cv. Golden Cross Bantam T51); conditions: as printed under experiment (8), nitrogen-deficient maize green leaves
Protocol: as §2
The cut leaves of the maize cultivated under the low-nitrogen condition as mentioned above were treated (i) with water for 60 minutes and then with water for 90 minutes, (ii) with water for 60 minutes and then with 5 μM t-zeatin for 90 minutes, (iii) with 20 μg/ml of cycloheximide for 60 minutes and then with 20 μg/ml cycloheximide and 5 μM t-zeatin for 90 minutes, or (iv) with 20 μg/ml of cycloheximide for 60 minutes and then with 20 μg/ml of cycloheximide for 90 minutes, and Northern analysis was performed in the same manner as in (5) except that the amount of the RNAs applied to each gel was 30 μg.

mRNA of ZmCip1 [7] = assay: Northern analysis of induction of expression of CIP1 by ammonium ion, cut leaves; assay type: cell-based, maize (Zea mays L.cv. Golden Cross Bantam T51); conditions: 6 mM NH4+, nitrogen-deficient maize green leaves
Protocol: as §2
The cut leaves of the maize cultivated under the low-nitrogen condition as mentioned above were treated with 6 mM NH4^+ solution or with 0.08 mM NaNO3 solution for 0 to 7 hours and Northern analysis was carried out in the same manner as in (5) except that the weight of the RNAs applied to each gel was 15 μg.

Protocol for ZmCip1 gene: (3) Assay of Induction of Expression of CIP 1 by Cytokinin Treatment (Run-Off Transcription Assay) Run-off transcription assay for expression of ZmCip1 gene was carried out. Nuclei were isolated from maize mesophyll cells and its RNA synthesis activity was measured according to a reported method (I. Suzuki, C. Cretin, T. Omata, T. Sugiyama, Plant Physiol.105:1223,1994). The RNAs synthesized by the isolated nuclei were fractionated by formaldehyde gel electrophoresis and the fractionated RNAs were transferred to a nylon membrane, followed by hybridization with ^32P-labeled ZmCip 1 cDNA or C4Ppc1 cDNA. The intensity of the detected signal was measured by Bio Imaging Analyzer (BAS2000, Fuji Film).

c1ccc(CNc2ncnc3nc[nH]c23)cc1 [benzyladenine]
induction of expression of ZmCip1 mRNA (mRNA of ZmCip1 [1]; 5 μM): induced

zeatin-O-glucoside
induction of expression of ZmCip1 mRNA (mRNA of ZmCip1 [2]): induced

CC1=CC(=O)CC(C)(C)[C@@]1(O)/C=C/C(C)=C\C(=O)O [abscisic acid]
induction of expression of ZmCip1 mRNA (mRNA of ZmCip1 [1]; 10 μM): slightly induced

O=[N+]([O-])[O-].[Na+] [nitrate ion, NaNO3]
expression of the gene 24 hours after the treatment (mRNA of ZmCip1 [3]; 16 mM NaNO3, 24 hours): scarcely observed | time after treatment at which accumulation of ZmCip1 mRNA was confirmed (mRNA of ZmCip1 [3]; 16 mM NaNO3, nitrogen-deficient green leaves): 5 to 6 h | accumulation of ZmCip1 mRNA in green leaves (mRNA of ZmCip1 [4]; nitrogen-deficient maize green leaves): confirmed | expression of ZmCip1 mRNA in roots (mRNA of ZmCip1 [4]; roots): scarcely observed

C/C(=C\CNc1ncnc2[nH]cnc12)CO [t-zeatin]
induction of expression of ZmCip1 mRNA (mRNA of ZmCip1 [1]; 5 μM): induced | low level of t-zeatin at which expression of ZmCip1 mRNA was induced (mRNA of ZmCip1 [5]): 10^−9 M | treatment time that causes transcription of ZmCip1 mRNA (ZmCip1 gene; cut leaves of maize cultivated under low-nitrogen condition, nuclei from mesophyll cells): 20 min | timing of ZmCip1 transcription compared with transcription of C4Ppc1 mRNA (ZmCip1 gene; same leaves treated with t-zeatin): much earlier stage | time after treatment at which accumulation of ZmCip1 mRNA was confirmed (mRNA of ZmCip1 [6]): 30 min | time after treatment at which the gene was strongly expressed (mRNA of ZmCip1 [6]): 45 to 90 min | induction of expression of ZmCip1 mRNA (mRNA of ZmCip1 [2]): induced

N [ammonium ion]
time after treatment at which ZmCip1 mRNA was confirmed (mRNA of ZmCip 1): 5 h | time after treatment at which the gene was strongly expressed (mRNA of ZmCip 1): 6 to 7 h | time after treatment at which ZmCip1 mRNA was confirmed (mRNA of ZmCip1 [7]): 5 h | time after treatment at which the gene was strongly expressed (mRNA of ZmCip1 [7]): 6 to 7 h
